Results on 10 molecules are retold here after patent US20250388553A1 (Incyte Corporation, priority 2018, published 2025).

The target of experiment [1] is PI3Kδ (p1106/p85a) Recombinant Human Protein (Homo sapiens (Human), UniProt O00329). The experiment is described as follows: PI3Kδ scintillation proximity assay. In kind it is biochemical. The conditions noted are these: scintillation proximity assay, recombinant human PI3Kδ. From the text:
Example C. PI3Kδ Scintillation Proximity Assay
Materials: [γ-^33P]ATP (10 mCi/mL) and Wheat Germ Agglutinin (WGA) YSi SPA Scintillation Beads was purchased from Perkin Elmer (Waltham, MA). Lipid kinase substrate, D-myo-Phosphatidylinositol 4,5-bisphosphate (PtdIns(4,5)P2)D (+)-sn-1,2-di-O-octanoylglyceryl, 3-O-phospho linked (PIP2), CAS 204858-53-7, was purchased from Echelon Biosciences (Salt Lake City, UT). PI3Kδ (p1106/p85a) Recombinant Human Protein was purchased from Eurofins (St Charles, MO). ATP, MgCl2, DTT, EDTA, MOPS and CHAPS were purchased from Sigma Aldrich (St. Louis, MO).
(§1) The kinase reaction was conducted in polystyrene 384-well Greiner Bio-one white plate from Thermo Fisher Scientific in a final volume of 25 μL. Inhibitors were first diluted serially in DMSO and added to the plate wells before the addition of other reaction components. The final concentration of DMSO in the assay was 2%. The PI3Kδ assay was carried out at room temperature in 20 mM MOPS, pH 6.7, 10 mM MgCl2, 5 mM DTT and CHAPS 0.03%. Reactions were initiated by the addition of ATP, the final reaction mixture consisted of 20 µM […], 0.5 μCi [γ-^33P]ATP, 3.4 nM PI3Kδ. Reactions were incubated for 120 min and terminated by the addition of 40 μL SPA beads suspended in quench buffer: 163 mM potassium phosphate pH 7.8, 20% glycerol, 25 mM EDTA. The final concentration of SPA beads is 1.0 mg/mL. After the plate sealing, plates were shaken overnight at room temperature and centrifuged at 1500 rpm for 10 min, the radioactivity of the product was determined by scintillation counting on Topcount (PerkinElmer). IC50 determination was performed by fitting the curve of percent of the solvent control activity versus the log of the inhibitor concentration using the GraphPad Prism 6.0 software.
(§2) The compounds of the Examples were tested in the assays described in Examples A, B and C and found to have the IC50s are shown in Tables A1, A2, A3 and A4.

The target in experiment [2] is PI3Kγ (p110γ) Recombinant Human Protein (Homo sapiens (Human), UniProt P48736). The experiment is described as follows: PI3K-γ scintillation proximity assay. To be noted: scintillation proximity assay, recombinant human p110γ. The format is biochemical.
Chain of PI3Kγ (p110γ) Recombinant Human Protein (P48736 whole entry): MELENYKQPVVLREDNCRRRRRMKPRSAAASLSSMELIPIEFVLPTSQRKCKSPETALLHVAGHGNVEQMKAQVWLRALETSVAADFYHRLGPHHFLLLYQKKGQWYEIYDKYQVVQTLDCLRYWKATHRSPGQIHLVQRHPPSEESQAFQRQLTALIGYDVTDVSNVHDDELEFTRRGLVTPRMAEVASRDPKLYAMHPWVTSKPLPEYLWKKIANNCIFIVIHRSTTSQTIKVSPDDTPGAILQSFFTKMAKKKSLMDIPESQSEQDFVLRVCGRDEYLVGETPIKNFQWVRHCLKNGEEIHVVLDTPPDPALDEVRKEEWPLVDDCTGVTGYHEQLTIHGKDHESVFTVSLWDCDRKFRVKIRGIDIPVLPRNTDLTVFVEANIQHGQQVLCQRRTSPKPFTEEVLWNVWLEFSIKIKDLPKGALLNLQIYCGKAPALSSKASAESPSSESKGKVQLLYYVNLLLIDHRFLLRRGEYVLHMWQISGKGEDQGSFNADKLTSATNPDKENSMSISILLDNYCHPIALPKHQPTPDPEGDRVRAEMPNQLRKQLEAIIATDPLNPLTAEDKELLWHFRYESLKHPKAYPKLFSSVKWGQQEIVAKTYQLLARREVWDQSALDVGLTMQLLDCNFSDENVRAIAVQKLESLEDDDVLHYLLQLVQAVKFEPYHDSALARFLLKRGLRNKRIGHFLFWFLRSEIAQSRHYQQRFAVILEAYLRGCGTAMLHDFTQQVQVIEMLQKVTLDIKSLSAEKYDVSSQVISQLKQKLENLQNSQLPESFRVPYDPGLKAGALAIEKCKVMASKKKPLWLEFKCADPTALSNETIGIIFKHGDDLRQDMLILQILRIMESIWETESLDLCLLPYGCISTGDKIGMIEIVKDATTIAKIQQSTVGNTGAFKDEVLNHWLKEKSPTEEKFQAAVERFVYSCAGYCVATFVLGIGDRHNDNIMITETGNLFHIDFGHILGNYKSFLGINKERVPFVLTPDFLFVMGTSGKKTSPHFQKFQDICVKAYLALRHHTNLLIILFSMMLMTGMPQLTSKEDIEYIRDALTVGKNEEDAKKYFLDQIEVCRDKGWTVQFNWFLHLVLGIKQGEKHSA
From the text: Example B. PI3K-γ Scintillation Proximity Assay
Materials: [γ-^33P]ATP (10 mCi/mL) and Wheat Germ Agglutinin (WGA) YSi SPA Scintillation Beads was purchased from Perkin Elmer (Waltham, MA). Lipid kinase substrate, D-myo-Phosphatidylinositol 4,5-bisphosphate (PtdIns(4,5)P2)D (+)-sn-1,2-di-O-octanoylglyceryl, 3-O-phospho linked (PIP2), CAS 204858-53-7, was purchased from Echelon Biosciences (Salt Lake City, UT). PI3Kγ (p110γ) Recombinant Human Protein was purchased from Life technology (Grand Island, NY). ATP, MgCl2, DTT, EDTA, MOPS and CHAPS were purchased from Sigma Aldrich (St. Louis, MO).
as §1, with “[…].” for “μL.”, “PI3Kγ” for “PI3Kδ”, “13” for “3.4”, “PI3Kγ.” for “PI3Kδ.”, “(Perkin-Elmer).” for “(PerkinElmer).”
as §2
For orientation: Scintillation proximity formats need no separation of bound from free tracer.

Where a name gives a salt, the structure may show the parent alone. Where only a bound is given, the exact number is not on record here.

Chain of PI3Kδ (p1106/p85a) Recombinant Human Protein (O00329 whole entry): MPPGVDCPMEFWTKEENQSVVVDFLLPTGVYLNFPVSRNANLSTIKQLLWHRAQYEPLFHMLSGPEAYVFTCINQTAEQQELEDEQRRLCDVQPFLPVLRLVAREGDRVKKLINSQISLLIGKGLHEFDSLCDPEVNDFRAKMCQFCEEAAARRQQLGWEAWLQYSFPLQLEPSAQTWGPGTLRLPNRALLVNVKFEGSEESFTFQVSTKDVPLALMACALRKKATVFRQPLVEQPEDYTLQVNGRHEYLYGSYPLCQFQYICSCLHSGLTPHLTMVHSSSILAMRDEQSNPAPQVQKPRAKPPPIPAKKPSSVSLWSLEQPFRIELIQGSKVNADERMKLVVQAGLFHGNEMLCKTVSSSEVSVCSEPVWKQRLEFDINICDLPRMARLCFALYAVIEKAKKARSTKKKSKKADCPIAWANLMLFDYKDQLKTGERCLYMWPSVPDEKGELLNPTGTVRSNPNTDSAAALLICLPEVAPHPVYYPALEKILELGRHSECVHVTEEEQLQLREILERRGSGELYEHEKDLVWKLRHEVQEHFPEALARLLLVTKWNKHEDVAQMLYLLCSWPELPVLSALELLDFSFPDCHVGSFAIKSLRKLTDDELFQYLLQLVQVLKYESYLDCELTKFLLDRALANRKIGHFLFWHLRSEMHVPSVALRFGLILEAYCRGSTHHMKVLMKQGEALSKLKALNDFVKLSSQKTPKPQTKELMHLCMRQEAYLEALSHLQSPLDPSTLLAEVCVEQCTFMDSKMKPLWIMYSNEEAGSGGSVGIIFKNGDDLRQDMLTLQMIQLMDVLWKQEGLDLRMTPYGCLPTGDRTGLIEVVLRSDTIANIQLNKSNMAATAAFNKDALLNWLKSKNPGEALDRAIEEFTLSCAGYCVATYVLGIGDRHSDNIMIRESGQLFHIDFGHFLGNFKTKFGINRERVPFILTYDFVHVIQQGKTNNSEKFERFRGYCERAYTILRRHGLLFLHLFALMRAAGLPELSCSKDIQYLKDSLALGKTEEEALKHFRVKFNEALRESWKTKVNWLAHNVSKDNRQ
Chain of PI3Kδ (p1106/p85a) Recombinant Human Protein (P27986 whole entry partner): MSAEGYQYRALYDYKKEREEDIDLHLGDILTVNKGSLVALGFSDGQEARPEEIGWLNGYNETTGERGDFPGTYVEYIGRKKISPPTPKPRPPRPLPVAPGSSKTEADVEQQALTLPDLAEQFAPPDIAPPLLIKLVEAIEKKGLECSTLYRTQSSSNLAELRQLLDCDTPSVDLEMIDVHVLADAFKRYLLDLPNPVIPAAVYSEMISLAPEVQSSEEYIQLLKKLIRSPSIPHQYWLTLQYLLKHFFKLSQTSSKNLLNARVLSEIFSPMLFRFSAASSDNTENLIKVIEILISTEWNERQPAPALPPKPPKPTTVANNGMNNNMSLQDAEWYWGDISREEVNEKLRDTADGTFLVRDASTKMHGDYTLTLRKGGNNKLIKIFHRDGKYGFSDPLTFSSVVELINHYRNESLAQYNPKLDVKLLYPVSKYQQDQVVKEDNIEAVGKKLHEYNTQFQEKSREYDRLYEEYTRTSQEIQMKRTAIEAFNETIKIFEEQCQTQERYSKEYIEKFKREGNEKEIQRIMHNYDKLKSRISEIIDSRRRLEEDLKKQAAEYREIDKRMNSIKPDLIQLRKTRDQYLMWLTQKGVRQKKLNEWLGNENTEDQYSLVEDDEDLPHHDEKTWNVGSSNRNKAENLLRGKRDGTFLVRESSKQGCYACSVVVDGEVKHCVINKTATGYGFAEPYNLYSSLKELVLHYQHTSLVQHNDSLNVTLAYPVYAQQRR

As usually defined, the IC50 is the concentration that gives 50% inhibition. Regarding `Cc1ccc(C(O)(C(N)=O)C(F)(F)F)cc1-c1cnc(N)c(C(=O)NC23CCC(C#N)(CC2)CC3)n1` (stereo not shown) [Example 25, 3-amino-6-(5-(3-amino-1,1,1-trifluoro-2-hydroxy-3-oxopropan-2-yl)-2-methylphenyl)-N-(4-cyanobicyclo[2.2.2]octan-1-yl)pyrazine-2-carboxamide trifluoroacetate], the IC50 in experiment [1] (Table A1) and in experiment [2] (Table A1) was less than 0.1 µM throughout. In the case of `COCC#Cc1nc(-c2cc(C(O)(C(N)=O)C(F)(F)F)ccc2C)cnc1N` (stereo not shown) [Example 47, 2-(3-(5-amino-6-(3-methoxyprop-1-ynyl)pyrazin-2-yl)-4-methylphenyl)-3,3,3-trifluoro-2-hydroxypropanamide trifluoroacetate], the IC50 in experiment [1] (Table A2) and in experiment [2] (Table A2) was less than 0.1 µM throughout.

Regarding `Cc1ccc(C(O)(C(N)=O)C(F)F)cc1-c1cnc(N)c(-c2cnn(C)n2)n1` (stereo not shown) [Example 101, 2-(3-(5-amino-6-(2-methyl-2H-1,2,3-triazol-4-yl)pyrazin-2-yl)-4-methylphenyl)-3,3-difluoro-2-hydroxypropanamide], the IC50 in experiment [1] (Table A3) and in experiment [2] (Table A3) was less than 0.1 µM in each case. `Cc1ccc(C(O)(C(N)=O)C(F)(F)F)cc1-c1cnc(N)c(-c2ccnn2C)n1` (stereo not shown) [Example 69, 2-(3-(5-Amino-6-(1-methyl-1H-pyrazol-5-yl)pyrazin-2-yl)-4-methylphenyl)-3,3,3-trifluoro-2-hydroxypropanamide trifluoroacetate]: the IC50 in experiment [1] (Table A3) and in experiment [2] (Table A3) was less than 0.1 µM throughout.

Turning to `Cc1ccc(C(O)(C(N)=O)C(F)(F)F)cc1-c1cnc(N)c(C(=O)NCC(C)(C)C#N)n1` (stereo not shown) [Example 15, 3-amino-6-(5-(3-amino-1,1,1-trifluoro-2-hydroxy-3-oxopropan-2-yl)-2-methylphenyl)-N-(2-cyano-2-methylpropyl)pyrazine-2-carboxamide trifluoroacetate], the IC50 in experiment [1] (Table A1) and in experiment [2] (Table A1) was less than 0.1 µM each time.

In the case of `Cc1ccc(C(O)(C(N)=O)C(F)(F)F)cc1-c1cnc(N)c(C#Cc2ccc(CC#N)cc2)n1` (stereo not shown) [Example 59, 2-(3-(5-amino-6-((4-(cyanomethyl)phenyl)ethynyl)pyrazin-2-yl)-4-methylphenyl)-3,3,3-trifluoro-2-hydroxypropanamide], the IC50 in experiment [1] (Table A2) and in experiment [2] (Table A2) was less than 0.1 µM throughout. As to `Cc1ccc(C(O)(C(=O)N(C)C)C(F)(F)F)cc1-c1cnc(N)c(-n2cncn2)n1` (stereo not shown) [Example 95, 2-(3-(5-Amino-6-(1H-1,2,4-triazol-1-yl)pyrazin-2-yl)-4-methylphenyl)-3,3,3-trifluoro-2-hydroxy-N,N-dimethylpropanamide trifluoroacetate], the IC50 in experiment [1] (Table A3) and in experiment [2] (Table A3) was 0.1 to 0.5 µM throughout. For the molecule `Cc1ccc(C(O)(C(N)=O)C(F)(F)F)cc1-c1cnc(N)c(C(=O)NCC2(C#N)CC2)n1` (stereo not shown) [Example 4, 3-amino-6-(5-(3-amino-1,1,1-trifluoro-2-hydroxy-3-oxopropan-2-yl)-2-methylphenyl)-N-((1-cyanocyclopropyl)methyl)pyrazine-2-carboxamide trifluoroacetate], the IC50 in experiment [1] (Table A1) and in experiment [2] (Table A1) was less than 0.1 µM in each case.

For the molecule `Cc1ccc(C(O)(C(N)=O)C(F)(F)F)cc1-c1cnc(N)c(C(=O)NCC(C)(C)O)n1` (stereo not shown) [Example 1, 3-Amino-6-(5-(3-amino-1,1,1-trifluoro-2-hydroxy-3-oxopropan-2-yl)-2-methylphenyl)-N-(2-hydroxy-2-methylpropyl)pyrazine-2-carboxamide], the IC50 in experiment [1] (Table A1) and in experiment [2] (Table A1) was less than 0.1 µM in each case. On to `Cc1ccc(C(O)(C(N)=O)C(F)(F)F)cc1-c1cnc(N)c(C2CC(C(=O)NC(C)C)C2)n1` (single isomer, unassigned) [Example 111, 3-(3-Amino-6-(5-(3-amino-1,1,1-trifluoro-2-hydroxy-3-oxopropan-2-yl)-2-methylphenyl)pyrazin-2-yl)-N-isopropylcyclobutane-1-carboxamide], for which the IC50 in experiment [1] (Table A4) is 0.1 to 0.5 µM.
